Assay results as given in patent US20220268782A1, “METHODS FOR PREDICTING AND TREATING CARDIAC DYSFUNCTION” (INSERM (INSTITUT NATIONAL DE LA SANTÉ EAT DE LA RECHERCHE …, priority 2019, published 2022).

Columns and labels:
11 month-old WT mice = assay: In vivo intraperitoneal BH4 treatment of 11-month-old WT mice: cardiac phenotyping, plasma and hepatic PA
Protocol: PA in a dose of 200 mg/kg twice a day or vehicle (1×PBS) was subcutaneously administered to 11 month-old WT mice (Janvier Labs, France) in vivo for a month. BH4 in a dose of 10 mg/kg/die 2×/die or vehicle (1×PBS with 10 mM sodium ascorbate and citric acid to pH 4.5) was intraperitoneally administered to 11 month-old WT mice in vivo over six weeks. General state of the mice (body weight & wellbeing) was closely monitored.
(§1) Data acquisition for a single cohort was performed by a single operator (JT or ER). Images were acquired from a parasternal position at the level of the papillary muscles using a 13-MHz linear-array transducer with a digital ultrasound system (Vivid 7, GE Medical System, Horton, Norway). Left ventricular dimensions and ejection fraction, anterior and posterior wall thicknesses were serially obtained from M-mode acquisition. Relative LV wall thickness (RWT) was defined as the sum of septal and posterior wall thickness over LV end-diastolic diameter, and LV mass was determined using the uncorrected cube assumption formula (LV mass=(AWTd+LVEDD+PWTd)^3−(LVEDD)^3). Peak systolic values of radial strain rate of the anterior and posterior wall were obtained using Tissue Doppler Imaging (TDI) as previously described.^2 TDI loops were acquired from parasternal view with a careful alignment with the radial component of the deformation' at a mean frame rate of 514 fps and a depth of 1 cm. The Nyquist velocity limit was set at 12 cm/s. Radial strain rate analysis was performed offline using the EchoPac Software (GE Medical Systems) blindly by a single operator (GD). Peak systolic of radial strain rate was computed from a region of interest positioned in the mid anterior wall and was measured over an axial distance of 0.6 mm. The temporal smoothing filters were turned off for all measurements. Because of the inevitable respiratory variability, we averaged peak systolic of radial strain rate on 8 consecutive cardiac cycles.
(§2) In vivo haemodynamic measurements were performed just before mice of indicated ages were sacrificed.' Haemodynamic evaluation was performed in mice placed on a homeothermic operating table in supine position under 1.5% isoflurane anesthesia with spontaneous breathing. A 1.4-Fr microcatheter (Millar Instruments, Houston, USA) was calibrated manually before each experiment, inserted via the right carotid artery into the aorta and subsequently advanced to the left ventricle. Data were collected after at least 10 min of baseline, using the lowest isoflurane concentration tolerated to ensure minimal cardiodepression during measurement of peak rates of isovolumetric pressure development (dP/dtmax) and pressure decay (dP/dtmin). The microcatheter was then withdrawn to the aorta for measurement of systolic and diastolic pressure. Data were analyzed using the IOX software (EMKA, France).
(§3) All mice were weighed, euthanized by cervical dislocation, followed by rapid excision of the organs of interest. The heart was cannulated through the aorta for perfusion with ice-cold 1×PBS, then blotted and weighed. The heart was cut in half perpendicular to its axis: the apical two-third was snap-frozen in liquid nitrogen, whilst the basic one-third was recannulated through the aorta, perfused with 10% formalin for histology. Hearts were kept in formalin at 4° C. for at least 24-48 hours before embedding. Snap-frozen tissues were kept at −80° C., until they were powdered using a mortar and pestle cooled with liquid nitrogen and collected as aliquots. Livers and kidneys were processed in a similar manner.
Formalin-fixed organs were embedded in paraffin. Cross-sections were cut into 7 μm thickness using a rotary microtome (Leica). To assess cardiac fibrosis, Sirius red staining was performed, followed by dehydration and mounting with Eukitt quick-hardening mounting medium (Sigma). […]

WT mice = assay: In vivo subcutaneous PA treatment of WT mice: cardiac phenotyping
Protocol: […] […] General state of the mice (body weight & wellbeing) was closely monitored.
as §1, §2, §3
Formalin-fixed organs were embedded in paraffin. Cross-sections were cut into 7 μm thickness using a rotary microtome (Leica). To assess cardiac fibrosis, Sirius red staining was performed, followed by dehydration and mounting with Eukitt quick-hardening mounting medium (Sigma). To visualise cardiomyocyte hypertrophy, sections were incubated in 2 μg/mL Texas red-conjugated wheat germ agglutinin (WGA; Invitrogen) in 1×PBS at room temperature for 45 minutes. Slides were then mounted with fluorescent mounting media (Abcam). Images were acquired using a Zeiss fluorescent microscope. Whole-mount preparations were made of hearts and livers of 2- and 15-month-old p21-mCherry reporter mice. […]

[1] = older group (11 month-old at start), PA 200 mg/kg twice a day, one month

In the case of `CC(O)C(O)C1CNc2nc(N)[nH]c(=O)c2N1` (centres unmarked) [BH4, 2-amino-6-(1,2-dihydroxypropyl)-5,6,7,8-tetrahydro-3H-pteridin-4-one], the “plasma PA” value (11 month-old WT mice; 11-month-old WT mice, BH4 10 mg/kg i.p. twice a day over 6 weeks, FIG. 4a) is reported as “reduce plasma PA to young levels”, the systemic arterial pressures (11 month-old WT mice; 11-month-old WT mice, BH4 10 mg/kg i.p. twice a day over 6 weeks, FIG. 4f) is reported as “without lowering” and the “interstitial fibrosis (Sirius red, vimentin)” value (11 month-old WT mice; 11-month-old WT mice, BH4 10 mg/kg i.p. twice a day over 6 weeks, FIG. 4g-h) is reported as “normalised”. For the same compound, the “senescent myocardial expression of p21, Pah, Gch1 & 2-SC” value (11 month-old WT mice; 11-month-old WT mice, BH4 10 mg/kg i.p. twice a day over 6 weeks, FIG. 4j) was “suppressing”, the “HW/TL (heart weight to tibia length)” value (11 month-old WT mice; 11-month-old WT mice, BH4 10 mg/kg i.p. twice a day over 6 weeks, to young values, FIG. 4b) was “ameliorated” and the “contractility (systolic strain rate, dP/dtmax)” value (11 month-old WT mice; 11-month-old WT mice, BH4 10 mg/kg i.p. twice a day over 6 weeks, to young values, FIG. 4c-d) was “ameliorated”. The “relaxation (dP/dtmin)” value (11 month-old WT mice; 11-month-old WT mice, BH4 10 mg/kg i.p. twice a day over 6 weeks, to young values, FIG. 4e) was “ameliorated”, the “Pah in liver (immunofluorescence)” value (11 month-old WT mice; 12.5-month-old WT mice, BH4 vs. vehicle, FIG. 4s) was “re-expressed” and the “hepatic PA content” value (11 month-old WT mice; 12.5-month-old WT mice, BH4 vs. vehicle, FIG. 4t) was “reduced”. For the same compound, the “course of drug treatment (body weight & wellbeing monitored)” value (11 month-old WT mice; BH4 10 mg/kg twice a day intraperitoneally over six weeks) was “completed as scheduled without incidents” and the “hepatic Pah activity” value (11 month-old WT mice; BH4-treated WT mice, data not shown) was “improved”.

`N[C@@H](Cc1ccccc1)C(=O)O` [PA, (S)-2-Amino-3-phenylpropanoic acid] was tested, and the “course of drug treatment (body weight & wellbeing monitored)” value (WT mice; PA 200 mg/kg twice a day subcutaneously for a month) was “completed as scheduled without incidents”, the LV ejection fraction (WT mice; PA 200 mg/kg twice a day, one month, FIG. 3h) was “unaltered” and the “Plasma PA levels” value (WT mice; WT mice 5 vs. 11 month-old at start, PA 200 mg/kg twice a day over one month) was “increased in both age-groups, but were considerably higher in older animals”. For the same compound, the “tolerability / weight loss” value (WT mice; WT mice, PA 200 mg/kg twice a day over one month, data not shown) was “tolerated PA treatment well without significant weight loss”, the “hepatic PA levels” value (WT mice; livers of PA-treated 6-month-old WT mice vs. 12-month-old WT mice, FIG. 4m) was “comparable” and the “cardiac hypertrophy (HW/TL)” value (WT mice; [1]) was “no change”. The “cardiomyocyte size (cross-sectional area)” value (WT mice; [1]) was “no change”, the “myocardial interstitial fibrosis (Sirius red)” value (WT mice; [1]) was “no change” and the “cardiac hypertrophy (HW/TL)” value (WT mice; young animals (5 month-old at start), PA 200 mg/kg twice a day, one month, FIG. 3c) was “increase”. The “cardiomyocyte size (cross-sectional area)” value (WT mice; young animals, PA 200 mg/kg twice a day, one month, FIG. 3e) was “increase”, the “myocardial interstitial fibrosis (Sirius red)” value (WT mice; young animals, PA 200 mg/kg twice a day, one month, FIG. 3f) was “increase” and the systolic strain rate (WT mice; young group, PA 200 mg/kg twice a day, one month, FIG. 3i) was “reduced”. For the same compound, the dP/dtmax (WT mice; young group, PA 200 mg/kg twice a day, one month, FIG. 3j) was “reduced”, the dP/dtmin (WT mice; young group, PA 200 mg/kg twice a day, one month, FIG. 3k) was “reduced” and the “myocardial senescence: p21, Pah, Gch1, 2-SC and 4-HNE” value (WT mice; young hearts, PA 200 mg/kg twice a day, one month, FIG. 3l) was “upregulation”.
